Results published in patent US9212391B2, “Method for determining DNA fragmentation in microorganisms” (Universidad Autonoma de Madrid, priority 2006, dated 2015).
Values after ≈ are worked out from the molar mass of the structure shown. “Also recorded” adds a separate entry of the source. Read-outs that look alike come from different tables or passages of the source.

Experiments:
[1] = tested on: Escherichia coli strain TG1 (sensitive strain); conditions: for Vital Stain Empty Capsules, Sensitive Strain: 40 minutes
[2] = tested on: Escherichia coli strain TG1 (sensitive strain); assay: DNA fragmentation / DNA damage level by the process of the invention (microgel, lysis, SYBR Gold); conditions: for DNA damage (in words): 300 micrograms/ml
[3] = tested on: Escherichia coli strain sensitive (TG1); assay: Growth inhibition MIC (commercial test), sensitive strain; format: cell-based; conditions: read-out: minimum inhibitory concentration (MIC) of growth
[4] = tested on: Escherichia coli strain resistant to ciprofloxacin; assay: Growth inhibition MIC (commercial test), resistant strain; format: cell-based; conditions: maximum concentration of the commercial test
[5] = tested on: Escherichia coli strain resistant to ciprofloxacin; conditions: 40 minutes, LB medium
[6] = 300 μg/ml, 40 min, exponential phase in LB medium

## CC1(C)S[C@@H]2[C@H](NC(=O)[C@H](N)c3ccccc3)C(=O)N2[C@H]1C(=O)O [Ampicillin, ampicillin]
[1]; [6]
  Vital Stain Empty Capsules: 5.00%
[1]; 300 micrograms/ml, 20 minutes
  Vital Stain Empty Capsules: 0.67%
[1]; 300 micrograms/ml, 24 hours
  Vital Stain Empty Capsules: 75.97%
[2]; [6]
  DNA Fragmentation (percentage of bacteria with fragmented DNA): 4.20%
[2]; 20 minutes
  DNA damage (in words): differences were not observed with respect to the control; also recorded: DNA fragments are not observed
[2]; 24 hours
  DNA damage (in words): massive presence of punctiform degraded DNA fragments; also recorded: the bottom is covered with DNA fragments

## O=C(O)c1cn(C2CC2)c2cc(N3CCNCC3)c(F)cc2c1=O [Ciprofloxacin, ciprofloxacin]
[3]
  MIC: 0.012 µg/mL (≈ 0.0362 µM)
[4]
  MIC: > 32 µg/mL
[5]; 0.50 μg/ml
  Vital Stain Empty Capsules, Resistant Strain: 0.00%
[5]; 1.00 μg/ml
  Vital Stain Empty Capsules, Resistant Strain: 0.10%
[5]; 2.50 μg/ml
  Vital Stain Empty Capsules, Resistant Strain: 0.10%
[5]; 10.00 μg/ml
  Vital Stain Empty Capsules, Resistant Strain: 0.15%
[1]; 0.003 μg/ml, exponential growth in LB medium
  Vital Stain Empty Capsules, Sensitive Strain: 0.70%
[1]; 0.006 μg/ml, exponential growth in LB medium
  Vital Stain Empty Capsules, Sensitive Strain: 0.76%
[1]; 0.012 μg/ml, exponential growth in LB medium
  Vital Stain Empty Capsules, Sensitive Strain: 1.06%
[1]; 0.100 μg/ml, exponential growth in LB medium
  Vital Stain Empty Capsules, Sensitive Strain: 1.40%
[1]; 0.50 μg/ml, LB medium
  Vital Stain Empty Capsules, Sensitive Strain: 0.05%
[1]; 1.00 μg/ml, LB medium
  Vital Stain Empty Capsules, Sensitive Strain: 0.00%
[1]; 2.50 μg/ml, LB medium
  Vital Stain Empty Capsules, Sensitive Strain: 0.15%
[1]; 10.00 μg/ml, LB medium
  Vital Stain Empty Capsules, Sensitive Strain: 0.48%
[1]; 25 μg/ml, 40 min
  Vital Stain Empty Capsules: 0.30%
[2]; 1 μg/ml
  minimum incubation time at which evident DNA damage was detected: 5 min
[2]; 25 μg/ml, 40 min
  DNA Fragmentation (percentage of bacteria with fragmented DNA): 100.00%
[2]; 0.006 micrograms/ml, 40 minutes
  DNA damage level: intermediate between level 1 and 2
[2]; 1 microgram/ml
  minimum time of incubation to detect a minimal effect at DNA level (incl. […] processing): 6.5 min
[2]; 10 micrograms/ml for 40 minutes, immediately after the treatment (0 min after wash)
  DNA damage level: 3-4
[2]; 10 micrograms/ml for 40 minutes, then 60 and 90 minutes in ciprofloxacin-free medium, image analysis
  size of the bacterial capsules versus the other assayed times: increases about double
[2]; 10 micrograms/ml for 40 minutes, then washed, image analysis, p<0.05
  time in antibiotic-free medium at which a statistically significant decrease of the fragment diffusion halo begins to be detected: 15 min

## OO [H2O2, hydrogen peroxide]
[1]; 10 mM, 10 min
  Vital Stain Empty Capsules: 0.30%
  Vital Stain Permeable: 5.00%
[2]; 10 mM, 10 min
  DNA Fragmentation (percentage of bacteria with fragmented DNA): 100.00%
[2]; 10 mM, 10 minutes
  DNA fragmentation (in words): massive Escherichia coli DNA fragmentation

## gentamicin
[1]; [6]
  Vital Stain Empty Capsules: 0.50%
  Vital Stain Permeable: 10.00%
[2]; [6]
  DNA Fragmentation (percentage of bacteria with fragmented DNA): 3.70%
